Experimental data: patent EP4310070A1, “USE OF TRANS AMANTADINE DERIVATIVE OR SALT THEREOF” (Chengdu Shibeikang Biomedical Technology Co., Ltd., priority 2021, dated 2022)
Counter-ions that a name gives are not always drawn. Marks after values point to notes of the source that are not given here.

Assays:
[1] = tested on: acute lung injury in mice induced by oleic acid; experiment: acute lung injury test in mouse (oleic acid-induced, histological grading of lung pathology); type: in vivo, KM mice
Description: KM mice, weighing 18-22g, with all 66 being males, were used and randomly grouped into a normal control group, a model control group, a Formula I compound group (40 mg/kg, in terms of free base), a Formula V compound group (40 mg/kg, in terms of free base), a Comparative Example group (40 mg/kg, in terms of free base), and an ambroxol hydrochloride group (40 mg/kg, in terms of free base), 11 animals in each group, and each group was administered intravenously (dissolved in normal saline by adjusting pH or directly dissolved in normal saline) once a day for 4 times, while the model control group and the normal control group were given an equivalent amount of normal saline. 30 minutes after the last administration, except for the normal control group, all other mice were administered 300 mg/kg oleic acid intravenously (prepared into the desired concentration with sterile saline containing 0.1% […] immediately before use), and the vehicle control group was given an equivalent volume of 0.1% BSA saline. The mice were sacrificed 4 hours after the last administration, and the right lobes of the lungs were removed and fixed in a 10% formaldehyde solution. After dehydration, embedding in paraffin, dissection, and staining with HE, they were observed under a microscope for pathological changes of the lung tissues. Here, the medicament used for the Comparative Example group was the 4-[(2-amino-3,5-dibromobenzyl)amino]adamantan-1-ol hydrochloride (racemic) prepared in Comparative Example 1. Table 1. Criteria for histological grading of lung injury
The above indicators are multiplied by different weighting numbers depending on the significance of the pathology (alveolar wall thickening × 1, inflammatory cell infiltration × 1, lung tissue necrosis × 3), and finally added up to obtain an overall lung pathology score. Table 2. Test results of lung pathologies of each group

[2] = tested on: ammonia-induced coughing response in mice; experiment: cough response of mice induced by ammonia water; type: in vivo, KM mice
Description: 50 KM mice, weighing 18-22g, of both sexes were used and randomly divided into 5 groups, a model control group, a Formula I compound group (15 mg/kg, in terms of free base), a Formula V compound group (15 mg/kg, in terms of free base), a Comparative Example group (15 mg/kg, in terms of free base), and an ambroxol hydrochloride group (15 mg/kg, in terms of free base), 10 animals in each group, and were administered intravenously (dissolved in normal saline by adjusting pH or directly dissolved in normal saline). 30 minutes after the administration, the mice were put in an inverted beaker with a volume of 500ml and a cotton ball inside. Timing was started once 0.2ml of concentrated ammonia/mouse was added onto the cotton ball. The number of coughs of each animal within 3 minutes was observed and recorded. Here, the medicament used for the Comparative Example group was the 4-[(2-amino-3,5-dibromobenzyl)amino]adamantan-1-ol hydrochloride (racemic) prepared in Comparative Example 1. Table 3. Effect on ammonia-induced coughing response in mice (x ± s, n=10)

[3] = tested on: expectoration amount by rat capillary tube expectoration; experiment: rat capillary sputum excretion test; type: in vivo, SD rats; settings: length of liquid in capillary tube within 90 minutes; 15 mg/kg in terms of free base via tail vein, 30 minutes after administration; n=10; vehicle control 22.7±4.41; hydrochloride, 15 mg/kg
Description: 180-220g SD rats of both sexes were used and divided into random groups, with 10 rats in each group, namely a vehicle control group, a Formula I compound group (15 mg/kg, in terms of free base), a Formula V compound group (15 mg/kg, in terms of free base), a Comparative Example group (15 mg/kg, in terms of free base) and ambroxol hydrochloride (15 mg/kg, in terms of free base). The rats were fasted and restrained from water for 12 hours before testing the amount of sputum excretion, and administered the respective medicaments via the tail vein (dissolved in normal saline by adjusting pH or directly dissolved in normal saline). 30 minutes after the administration, they were anesthetized by intraperitoneally injecting 1g/kg of a urethane solution in saline, fixed in supine position, and the trachea was separated after cutting through neck skin. A small hole was pierced by using a syringe needle between the two cartilage rings on the lower edge of the thyroid cartilage, and a capillary tube (with an inner diameter of 0.8mm, and a length of 10cm) was inserted centripetally into the trachea. Sputum was collected while adjusting the angle between the capillary tube and the trachea, and the total number of the length of liquids in the capillary tube (mm) was used to evaluate the expectoration effect. The amount of expectoration of the rats within 90 minutes was recorded. Here, the medicament used for the Comparative Example group was the 4-[(2-amino-3,5-dibromobenzyl)amino]adamantan-1-ol hydrochloride (racemic) prepared in Comparative Example 1. Table 4. Results of the effect on the expectoration amount by rat capillary tube expectoration

[4] = tested on: tracheal phenol red secretion in mice; experiment: phenol red expectoration test in mice; type: in vivo; settings: colorimetric measurement at 546nm; 30 mg/kg in terms of free base via tail vein 2 times in a row; x ± s, n=12; control 0.095±0.022; hydrochloride
Description: Experimental method: 60 mice of both sexes were used and randomly divided into a control (normal saline) group, a Formula I compound group (30 mg/kg, in terms of free base), a Formula V compound group (30 mg/kg, in terms of free base), a Comparative Example group (30 mg/kg, in terms of free base) and ambroxol hydrochloride (30 mg/kg, in terms of free base), 12 rats in each group; the respective medicaments were administered via the tail vein (dissolved in normal saline by adjusting pH or directly dissolved in normal saline) 2 times in a row. 15 minutes after the last administration to the mice, a 5% phenol red solution in normal saline (0.5g/kg) was subcutaneously injected. After 30 minutes, the mice were sacrificed and a section of the trachea was cut from below the thyroid cartilage to the trachea branch. The section was placed in a test tube containing 1 mL of normal saline, shaken and soaked for 30 minutes, and then centrifuged for 10 minutes (3000 r/min). The supernatant was transferred to another test tube, 0.1 mL of 1M NaOH solution was added, and shaken uniformly for a colorimetric measurement at 546nm. The effects of each group on the tracheal phenol red secretion in mice were statistically compared, and the experimental results obtained are shown in Table 5 below. Here, the medicament used for the Comparative Example group was the 4-[(2-amino-3,5-dibromobenzyl)amino]adamantan-1-ol hydrochloride (racemic) prepared in Comparative Example 1. Table 5. Effects on tracheal phenol red secretion in mice (x ± s)

[5] = number of mice (11 per group) at score 3 (Moderate), 40 mg/kg in terms of free base, intravenously once a day for 4 times, oleic acid 300 mg/kg i.v.
[6] = number of mice (11 per group) at score 4 (Severe), 40 mg/kg in terms of free base, intravenously once a day for 4 times, oleic acid 300 mg/kg i.v.

Nc1c(Br)cc(Br)cc1CN[C@@H]1[C@@H]2C[C@@H]3C[C@H]1C[C@@](O)(C3)C2 [Compound of Formula V, trans-4-[(2-amino-3,5-dibromobenzyl)amino]adamantan-1-ol hydrochloride]
Overall lung pathology score ([1]; group sum, weighted (alveolar wall thickening x 1, inflammatory cell infiltration x 1, lung tissue necrosis x 3), 40 mg/kg free base i.v. once a day for 4 times, model control 81, normal control 21, hydrochloride, 40 mg/kg): 24^**▲
Alveolar wall thickening Level 0 ([1]; number of mice (11 per group) at score 0 (No pathological change), 40 mg/kg in terms of free base, intravenously once a day for 4 times, oleic acid 300 mg/kg i.v.): 1
Inflammatory cell infiltration Level 0 ([1]; number of mice (11 per group) at score 0 (No pathological change), 40 mg/kg in terms of free base, intravenously once a day for 4 times, oleic acid 300 mg/kg i.v., hydrochloride): 2
Lung tissue necrosis Level 1 ([1]; number of mice (11 per group) at score 1 (Occasional), 40 mg/kg in terms of free base, intravenously once a day for 4 times, oleic acid 300 mg/kg i.v.): 0
Lung tissue necrosis Level 2 ([1]; number of mice (11 per group) at score 2 (Mild), 40 mg/kg in terms of free base, intravenously once a day for 4 times, oleic acid 300 mg/kg i.v.): 0
Inflammatory cell infiltration Level 2 ([1]; number of mice (11 per group) at score 2 (Mild), 40 mg/kg in terms of free base, intravenously once a day for 4 times, oleic acid 300 mg/kg i.v., hydrochloride): 2
Inflammatory cell infiltration Level 3 [1, 5]: 0
Lung tissue necrosis Level 3 [1, 5]: 0
Alveolar wall thickening Level 3 ([1]; number of mice (11 per group) at score 3 (Moderate), 40 mg/kg in terms of free base, intravenously once a day for 4 times, oleic acid 300 mg/kg i.v., hydrochloride): 0
Alveolar wall thickening Level 4 [1, 6]: 0
Inflammatory cell infiltration Level 4 [1, 6]: 0
Lung tissue necrosis Level 4 [1, 6]: 0
reduction of the number of coughs ([2]; compared with the model control group (P<0.05 or P<0.01), 15 mg/kg free base i.v.): significantly reduce the number of coughs
Number of coughs (times) ([2]; within 3 minutes after concentrated ammonia, 15 mg/kg in terms of free base i.v., 30 minutes after administration, x ± s, n=10, model control 41.7±8.76, hydrochloride, 15 mg/kg): 19.5±6.50 times
Expectoration amount in 90min (mm) [3]: 45.1±5.39 mm
Phenol red secretion (OD number) [4]: 0.278±0.054 OD number
